Measurements from patent US20240336602A1 (Katholieke Universiteit Leuven, priority 2020, published 2024).

What follows are compounds tested against T1, mouse TRPM3a2 (mTRPM3) ion channel (Mus musculus, UniProt J9SQF3) (assay: TRPM3 ion channel driven Ca2+ uptake, Fluo-4 AM assay (PS-stimulated, overexpressing flip-in HEK293 cells)). Details: PS (50 μM) stimulated Ca2+ influx, HEK293, cpds 300-399.
T1 construct: expressed in transfected cells; host or cells: flip-in HEK293
Assay type: cell-based
How it was run: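 Flip-in HEK293 cells overexpressing mTRPM3α2, loaded with Fluo-4 AM, were added to wells with compound plus 50 μM pregnenolone sulfate in Ca2+-containing Krebs buffer and read immediately (ex 485/em 535 nm). Percent inhibition was scaled between PS-plus-vehicle and positive-control-inhibitor signals.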

T1 sequence (J9SQF3 1-1709 isoform J9SQF3-12): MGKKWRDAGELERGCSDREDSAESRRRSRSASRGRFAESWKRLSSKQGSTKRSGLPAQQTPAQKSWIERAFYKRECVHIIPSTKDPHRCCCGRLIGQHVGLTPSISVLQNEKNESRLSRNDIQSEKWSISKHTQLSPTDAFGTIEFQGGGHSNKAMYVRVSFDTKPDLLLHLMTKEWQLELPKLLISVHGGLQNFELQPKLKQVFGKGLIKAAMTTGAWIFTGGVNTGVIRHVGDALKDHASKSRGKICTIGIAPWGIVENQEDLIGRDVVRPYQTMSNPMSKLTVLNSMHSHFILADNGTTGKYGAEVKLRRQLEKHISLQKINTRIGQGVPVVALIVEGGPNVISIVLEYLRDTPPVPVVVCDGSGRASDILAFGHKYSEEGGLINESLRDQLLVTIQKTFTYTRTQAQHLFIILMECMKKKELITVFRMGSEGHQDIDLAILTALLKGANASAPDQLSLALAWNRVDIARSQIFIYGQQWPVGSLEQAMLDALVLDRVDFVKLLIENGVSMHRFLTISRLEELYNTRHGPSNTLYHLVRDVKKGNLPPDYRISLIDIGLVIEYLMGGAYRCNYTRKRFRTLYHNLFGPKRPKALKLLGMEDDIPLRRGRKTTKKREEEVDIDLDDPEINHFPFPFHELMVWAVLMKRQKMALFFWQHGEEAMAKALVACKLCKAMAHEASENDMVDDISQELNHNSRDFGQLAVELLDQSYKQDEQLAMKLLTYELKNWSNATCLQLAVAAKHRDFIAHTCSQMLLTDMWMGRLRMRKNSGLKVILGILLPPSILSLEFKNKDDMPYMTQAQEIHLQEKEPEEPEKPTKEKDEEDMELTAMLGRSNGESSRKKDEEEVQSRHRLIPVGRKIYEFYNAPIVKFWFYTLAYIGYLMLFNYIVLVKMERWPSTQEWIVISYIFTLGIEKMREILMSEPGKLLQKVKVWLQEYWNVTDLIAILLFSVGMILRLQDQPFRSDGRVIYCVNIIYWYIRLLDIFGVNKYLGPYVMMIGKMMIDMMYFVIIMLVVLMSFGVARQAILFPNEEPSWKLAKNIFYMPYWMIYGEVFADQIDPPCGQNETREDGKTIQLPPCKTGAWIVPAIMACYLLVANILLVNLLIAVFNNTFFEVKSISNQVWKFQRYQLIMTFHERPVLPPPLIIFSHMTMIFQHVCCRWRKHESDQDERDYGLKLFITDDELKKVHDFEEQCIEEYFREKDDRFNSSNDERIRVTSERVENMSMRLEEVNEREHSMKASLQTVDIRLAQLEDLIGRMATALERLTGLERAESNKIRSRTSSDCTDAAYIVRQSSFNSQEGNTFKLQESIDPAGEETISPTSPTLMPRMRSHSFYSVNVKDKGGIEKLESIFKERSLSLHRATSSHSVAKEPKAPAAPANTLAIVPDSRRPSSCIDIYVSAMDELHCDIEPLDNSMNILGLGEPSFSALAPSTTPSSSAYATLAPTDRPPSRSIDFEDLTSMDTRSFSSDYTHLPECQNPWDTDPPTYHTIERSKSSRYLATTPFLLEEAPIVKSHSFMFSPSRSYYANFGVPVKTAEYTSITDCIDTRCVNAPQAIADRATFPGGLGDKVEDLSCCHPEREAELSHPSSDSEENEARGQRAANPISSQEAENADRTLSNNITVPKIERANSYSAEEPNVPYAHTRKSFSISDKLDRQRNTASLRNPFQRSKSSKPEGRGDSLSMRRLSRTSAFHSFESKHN

Which IC50 does the source give for `Cc1oc2c(F)cc(OCc3cccnc3O)cc2c1C(=O)NC1(CO)CCOCC1` [cpd 368, 7-fluoro-N-(4-(hydroxymethyl)tetrahydro-2H-pyran-4-yl)-5-((2-hydroxypyridin-3-yl)methoxy)-2-methylbenzofuran-3-carboxamide] here?
The IC50 was 1000 to 20000 nM.

For `Cc1ncc(COc2ccc3oc(C)c(C(=O)NC4COCC4O)c3c2)s1` (single isomer, unassigned) [386 - En 2], which IC50 is on record?
The IC50 was 1000 to 20000 nM.

Same assay, conditions: PS (50 μM) stimulated, cpd 001-199

With `Cc1oc2ccc(OCc3cccnc3C(F)(F)F)cc2c1C(=O)NC1CCN(C(=O)OC(C)(C)C)CC1(F)F` (centres unmarked) [cpd 098, tert-butyl 3,3-difluoro-4-(2-methyl-5-((2-(trifluoromethyl)pyridin-3-yl)methoxy)benzofuran-3-carboxamido)piperidine-1-carboxylate] as the compound, how does the IC50 read?
The IC50 was 1000 to 20000 nM.

For `CCOC(=O)c1c(C)oc2ccc(OCC3CCN(C(=O)OC(C)(C)C)C3)cc12` (centres unmarked) [cpd 079, tert-butyl 3-(((3-(ethoxycarbonyl)-2-methylbenzofuran-5-yl)oxy)methyl)pyrrolidine-1-carboxylate], which IC50 is on record?
The IC50 was 1000 to 20000 nM.

With `Cc1oc2ccc(OCc3ccc(C(F)(F)F)o3)cc2c1C(=O)NC1CCN(C)CC1` [cpd 069, 2-methyl-N-(1-methylpiperidin-4-yl)-5-((5-(trifluoromethyl)furan-2-yl)methoxy)benzofuran-3-carboxamide] as the compound, how does the IC50 read?
Its IC50 is 1000 to 20000 nM.

With `Cc1oc2ccc(OCc3ccccn3)cc2c1C(=O)NC1CCN(C(=O)OC(C)(C)C)CC1(F)F` (centres unmarked) [cpd 097, tert-butyl 3,3-difluoro-4-(2-methyl-5-(pyridin-2-ylmethoxy)benzofuran-3-carboxamido)piperidine-1-carboxylate] as the compound, how does the IC50 read?
Its IC50 is 1000 to 20000 nM.

With `Cc1oc2c(Cl)cc(OCc3cccnc3C(F)(F)F)cc2c1C(=O)NC1CCNCC1(F)F` (single isomer, unassigned) [184 - En 2] as the compound, how does the IC50 read?
Its IC50 is no less than 20000 nM.

With `Cc1ccncc1COc1ccc2oc(C)c(C(=O)NC3CCOC3)c2c1` (centres unmarked) [cpd 034, 2-methyl-5-((4-methylpyridin-3-yl)methoxy)-N-(tetrahydrofuran-3-yl)benzofuran-3-carboxamide] as the compound, how does the IC50 read?
Its IC50 is 1000 to 20000 nM.

With `Cc1ncsc1COc1ccc2oc(C)c(C(=O)NC3CC(=O)N(CCO)C3)c2c1` (single isomer, unassigned) [180 - En 1] as the compound, how does the IC50 read?
Its IC50 is 1000 to 20000 nM.

How did the IC50 turn out when `Cc1oc2ccc(OCc3cccnc3)cc2c1C(=O)O` [cpd 006, 2-methyl-5-(pyridin-3-ylmethoxy)benzofuran-3-carboxylic acid] was run?
The IC50 was 1000 to 20000 nM.

For `COCCN1CCC(NC(=O)c2c(C)oc3ccc(OCc4scnc4C)cc23)C1=O` (single isomer, unassigned) [169 - En 2], which IC50 is on record?
The IC50 was no more than 1000 nM.

For `Cc1ccncc1COc1ccc2oc(C)c(C(=O)NC3CCNC3=O)c2c1` (centres unmarked) [cpd 037, 2-methyl-5-((4-methylpyridin-3-yl)methoxy)-N-(2-oxopyrrolidin-3-yl)benzofuran-3-carboxamide], which IC50 is on record?
Its IC50 is 1000 to 20000 nM.

Same assay, conditions: PS (50 μM) stimulated, cpds. 400-499

Which IC50 does the source give for `Cc1ncc(COc2ccc3oc(C)c(C(=O)NC(C)(CO)C(N)=O)c3c2)s1` (single isomer, unassigned) [462 - En 1] here?
Its IC50 is no more than 1000 nM.

Same assay, conditions: PS (50 μM) stimulated, cpds. 500-599

For `Cc1ccc(COc2ccc3oc(C)c(C(=O)NC4(C(N)=O)CCOC4)c3c2)cn1` (single isomer, unassigned) [594 - En 1], which IC50 is on record?
Its IC50 is no more than 1000 nM.

Which IC50 does the source give for `Cc1ncc(COc2ccc3oc(C)c(C(=O)NC4(CO)CCNC4=O)c3c2)s1` (centres unmarked) [517 - En 1] here?
The IC50 was no more than 1000 nM.

How did the IC50 turn out when `Cc1ncccc1COc1ccc2oc(C)c(C(=O)NC3(CO)CCCNC3=O)c2c1` (single isomer, unassigned) [512 - En 1] was run?
Its IC50 is no more than 1000 nM.

`Cc1oc2ccc(OCc3c(F)cnn3C)cc2c1C(=O)NC1(C(N)=O)CCOC1` (single isomer, unassigned) [598 - En 1] was tested. Which IC50 did it give?
Its IC50 is no more than 1000 nM.

`Cc1ncc(COc2ccc3oc(C)c(C(=O)NC4(CO)CCCNC4=O)c3c2)o1` (single isomer, unassigned) [511 - En 1] was tested. Which IC50 did it give?
The IC50 was no more than 1000 nM.

How did the IC50 turn out when `Cc1oc2ccc(OCc3ccccn3)cc2c1C(=O)NC1(CO)CCNC1=O` (single isomer, unassigned) [520 - En 1] was run?
Its IC50 is no more than 1000 nM.

Same assay, conditions: PS (50 μM) stimulated, cpds. 600-666

How did the IC50 turn out when `CNC(=O)C(CO)NC(=O)c1c(C)oc2ccc(OCc3ccccn3)cc12` (single isomer, unassigned) [601 - En 1] was run?
The IC50 was no more than 1000 nM.
